Results published in PubChem BioAssay AID2060496 (Molecular Pharmacology Branch, DTP, NCI, 2025).

Tested on: 276233-004-R-J1-PDC complex spheroid viability
Assay: Anticancer human tumor 276233-004-R-J1-PDC patient-derived colon adenocarcinoma cell line growth inhibition [GQUAD]
Details: for IC50: curve of first compound; for viability, T/C: stronger effect = lower value; active = viability on the fitted dose curve at most 10% of control; inactive = the rest
Outline: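 Multi-cell-type spheroids of tumor cells with HUVEC and mesenchymal stem cells, treated with drug combinations. Concentrations descend in half-log steps from near clinical Cmax, or from 10 microM where Cmax is unknown; viability read-out.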

[1] = second compound 0.0316 µM, first compound 0.0316 µM
[2] = second compound 0.0316 µM, first compound 0.1 µM
[3] = second compound 0.0316 µM, first compound 0.316 µM
[4] = second compound 0.0316 µM, first compound 1 µM
[5] = second compound 0.0316 µM, first compound 3.16 µM
[6] = second compound 0.0316 µM, first compound 10 µM
[7] = second compound 0.1 µM, first compound 0.0316 µM
[8] = second compound 0.1 µM, first compound 0.1 µM
[9] = second compound 0.1 µM, first compound 0.316 µM
[10] = second compound 0.1 µM, first compound 1 µM
[11] = second compound 0.1 µM, first compound 3.16 µM
[12] = second compound 0.1 µM, first compound 10 µM
[13] = second compound 0.316 µM, first compound 0.0316 µM
[14] = second compound 0.316 µM, first compound 0.1 µM
[15] = second compound 0.316 µM, first compound 0.316 µM
[16] = second compound 0.316 µM, first compound 1 µM
[17] = second compound 0.316 µM, first compound 3.16 µM
[18] = second compound 0.316 µM, first compound 10 µM
[19] = second compound 1 µM, first compound 0.0316 µM
[20] = second compound 1 µM, first compound 0.1 µM
[21] = second compound 1 µM, first compound 0.316 µM
[22] = second compound 1 µM, first compound 1 µM
[23] = second compound 1 µM, first compound 3.16 µM
[24] = second compound 1 µM, first compound 10 µM
[25] = second compound 3.16 µM, first compound 0.0316 µM
[26] = second compound 3.16 µM, first compound 0.1 µM
[27] = second compound 3.16 µM, first compound 0.316 µM
[28] = second compound 3.16 µM, first compound 1 µM
[29] = second compound 3.16 µM, first compound 3.16 µM
[30] = second compound 3.16 µM, first compound 10 µM
[31] = second compound 10 µM, first compound 0.0316 µM
[32] = second compound 10 µM, first compound 0.1 µM
[33] = second compound 10 µM, first compound 0.316 µM
[34] = second compound 10 µM, first compound 1 µM
[35] = second compound 10 µM, first compound 3.16 µM
[36] = second compound 10 µM, first compound 10 µM
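Also: spheroids exposed to drugs for seven days.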
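For viability, T/C in this document: 100% = DMSO vehicle control viability.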

CC(=O)O[C@H]1C(=O)[C@@]2(C)[C@H]([C@H](OC(=O)c3ccccc3)[C@]3(O)C[C@H](OC(=O)[C@H](O)[C@@H](NC(=O)c4ccccc4)c4ccccc4)C(C)=C1C3(C)C)[C@]1(OC(C)=O)CO[C@@H]1C[C@@H]2O + Cc1cnc(CNC(=O)c2c(=O)c3ccc(N4CCCN(C)CC4)nc3n3c2sc2ccccc23)cn1
> 10 µM: IC50 (second compound 0.0316 µM) | IC50 (second compound 0.1 µM) | IC50 (second compound 0.316 µM) | IC50 (second compound 1 µM) | IC50 (second compound 3.16 µM) | IC50 (second compound 10 µM)
inactive: viability, T/C [1] 72.5% | viability, T/C [2] 80.5% | viability, T/C [3] 90.3% | viability, T/C [4] 81.1% | viability, T/C [5] 84.1% | viability, T/C [6] 95.8% | viability, T/C [7] 80.1% | viability, T/C [8] 93.4% | viability, T/C [9] 80.8% | viability, T/C [10] 93.6% | viability, T/C [11] 86.6% | viability, T/C [12] 84.5% | viability, T/C [13] 97.5% | viability, T/C [14] 94% | viability, T/C [15] 89.9% | viability, T/C [16] 91% | viability, T/C [17] 87.7% | viability, T/C [18] 95.6% | viability, T/C [19] 76% | viability, T/C [20] 84.8% | viability, T/C [21] 88.6% | viability, T/C [22] 89.5% | viability, T/C [23] 87% | viability, T/C [24] 75.8% | viability, T/C [25] 91.5% | viability, T/C [26] 72.9% | viability, T/C [27] 80.8% | viability, T/C [28] 71.1% | viability, T/C [29] 80.3% | viability, T/C [30] 83.8% | viability, T/C [31] 59.9% | viability, T/C [32] 62.5% | viability, T/C [33] 64.9% | viability, T/C [34] 53.8% | viability, T/C [35] 51.4% | viability, T/C [36] 61.4%

Cc1cccc(N(C)C(=O)C2C(O)CCN2c2nc(C)cc(C(F)(F)F)c2C#N)c1 (stereo unspecified) + CN(C)c1ccc(Nc2c3ccc(NC(=O)CCN4CCCC4)cc3nc3cc(NC(=O)CCN4CCCC4)ccc23)cc1
> 10 µM: IC50 (second compound 0.0316 µM) | IC50 (second compound 0.1 µM) | IC50 (second compound 0.316 µM) | IC50 (second compound 1 µM) | IC50 (second compound 3.16 µM)
inactive: viability, T/C [1] 77.3% | viability, T/C [2] 74.1% | viability, T/C [3] 86.7% | viability, T/C [4] 97.1% | viability, T/C [5] 98.1% | viability, T/C [6] 101% | viability, T/C [7] 96.8% | viability, T/C [8] 98.1% | viability, T/C [9] 89.5% | viability, T/C [10] 89.2% | viability, T/C [11] 86.5% | viability, T/C [12] 96% | viability, T/C [13] 71.2% | viability, T/C [14] 75.4% | viability, T/C [15] 73.2% | viability, T/C [16] 50.7% | viability, T/C [17] 60.5% | viability, T/C [18] 68.1% | viability, T/C [19] 57.3% | viability, T/C [20] 47.1% | viability, T/C [21] 63.1% | viability, T/C [22] 57.6% | viability, T/C [23] 51.2% | viability, T/C [24] 64.9% | viability, T/C [25] 51% | viability, T/C [26] 49.3% | viability, T/C [27] 50.6% | viability, T/C [28] 55.9% | viability, T/C [29] 65.8% | viability, T/C [30] 68.7% | viability, T/C [31] 39.7% | viability, T/C [32] 51.5% | viability, T/C [33] 41.2% | viability, T/C [34] 72.6% | viability, T/C [35] 63.1% | viability, T/C [36] 54.8%
< 0.0316 µM: IC50 (second compound 10 µM)

Cn1ncnc1[C@H]1c2n[nH]c(=O)c3cc(F)cc(c23)N[C@@H]1c1ccc(F)cc1 + CN(C)c1ccc(Nc2c3ccc(NC(=O)CCN4CCCC4)cc3nc3cc(NC(=O)CCN4CCCC4)ccc23)cc1
inactive: viability, T/C (second compound 0.0316 µM, first compound 0.000999 µM) 81.5% | viability, T/C (second compound 0.0316 µM, first compound 0.00316 µM) 96.6% | viability, T/C (second compound 0.0316 µM, first compound 0.00999 µM) 85.2% | viability, T/C [1] 88.2% | viability, T/C (second compound 0.0316 µM, first compound 0.0999 µM) 94.6% | viability, T/C [3] 97.8% | viability, T/C (second compound 0.1 µM, first compound 0.000999 µM) 90.3% | viability, T/C (second compound 0.1 µM, first compound 0.00316 µM) 81.3% | viability, T/C (second compound 0.1 µM, first compound 0.00999 µM) 90.7% | viability, T/C [7] 84.7% | viability, T/C (second compound 0.1 µM, first compound 0.0999 µM) 70.4% | viability, T/C [9] 64.3% | viability, T/C (second compound 0.316 µM, first compound 0.000999 µM) 68% | viability, T/C (second compound 0.316 µM, first compound 0.00316 µM) 62.4% | viability, T/C (second compound 0.316 µM, first compound 0.00999 µM) 69.6% | viability, T/C [13] 61.3% | viability, T/C (second compound 0.316 µM, first compound 0.0999 µM) 61.9% | viability, T/C [15] 67.4% | viability, T/C (second compound 1 µM, first compound 0.000999 µM) 57.5% | viability, T/C (second compound 1 µM, first compound 0.00316 µM) 51% | viability, T/C (second compound 1 µM, first compound 0.00999 µM) 42.3% | viability, T/C [19] 58.1% | viability, T/C (second compound 1 µM, first compound 0.0999 µM) 48% | viability, T/C [21] 52.8% | viability, T/C (second compound 3.16 µM, first compound 0.000999 µM) 62.4% | viability, T/C (second compound 3.16 µM, first compound 0.00316 µM) 60.7% | viability, T/C (second compound 3.16 µM, first compound 0.00999 µM) 54.5% | viability, T/C [25] 60.7% | viability, T/C (second compound 3.16 µM, first compound 0.0999 µM) 59.9% | viability, T/C [27] 52.7% | viability, T/C (second compound 10 µM, first compound 0.000999 µM) 47.2% | viability, T/C (second compound 10 µM, first compound 0.00316 µM) 43.1% | viability, T/C (second compound 10 µM, first compound 0.00999 µM) 55.8% | viability, T/C [31] 47.6% | viability, T/C (second compound 10 µM, first compound 0.0999 µM) 57.1% | viability, T/C [33] 54.2%
< 0.000999 µM: IC50 (second compound 10 µM)
> 0.316 µM: IC50 (second compound 0.0316 µM) | IC50 (second compound 0.1 µM) | IC50 (second compound 0.316 µM) | IC50 (second compound 1 µM) | IC50 (second compound 3.16 µM)
